Assay results taken from doi:10.1101/2025.04.02.646353v2, “Novel dopaminergic neurotransmission in the Octopus visual system” (biorxiv, 2025).
Blank lines part the entries; values can stand above or below the compound they belong to.

Experiments:
Assay in all cases: two-electrode voltage clamp, Xenopus oocytes
DopC1 (O. vulgaris) [1] = system: T1, DopC1 (O. vulgaris); format: cell-based, Octopus vulgaris; details: agonist; ND96, -60 mV
T1 construct: full-length cDNA cloned from 1-dph O. vulgaris paralarvae, KSM vector, Xenopus oocytes; homomeric cys-loop channel; LOC number follows O. sinensis annotation

[2] = biological target: T2, DopC1 from Apis mellifera (Apis mellifera, UniProt A0A7M7R6H2); format: cell-based
T2 construct: gene LOC408525; full-length synthetic cDNA (GeneArt), KSM vector, Xenopus oocytes; homomeric channel
T2 sequence (A0A7M7R6H2 91-549): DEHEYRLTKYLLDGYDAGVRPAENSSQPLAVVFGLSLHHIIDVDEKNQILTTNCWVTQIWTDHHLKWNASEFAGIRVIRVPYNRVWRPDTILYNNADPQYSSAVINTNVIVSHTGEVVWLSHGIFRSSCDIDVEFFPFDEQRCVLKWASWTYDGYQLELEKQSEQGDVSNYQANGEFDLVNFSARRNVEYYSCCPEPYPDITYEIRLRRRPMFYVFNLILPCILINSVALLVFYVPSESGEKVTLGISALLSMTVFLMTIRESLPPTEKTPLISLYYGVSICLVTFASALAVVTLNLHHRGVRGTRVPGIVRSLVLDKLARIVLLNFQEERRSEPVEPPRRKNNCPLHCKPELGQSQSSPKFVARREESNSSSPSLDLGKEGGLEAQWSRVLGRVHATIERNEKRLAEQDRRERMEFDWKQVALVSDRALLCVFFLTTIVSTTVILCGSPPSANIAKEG

DopC2 from Daphnia magna = biological target: T3, DopC2 from Daphnia magna (Daphnia magna, UniProt A0A0P6GTI1); format: cell-based; details: agonist; ND96, -60 mV
T3 construct: gene APZ42_017815; cDNA cloned from adult D. magna RNA, KSM vector, Xenopus oocytes; homomeric; LOC116923538 assigned to DopC2 by printed order only (DopC1 = LOC116927457)
T3 sequence (A0A0P6GTI1 36-620): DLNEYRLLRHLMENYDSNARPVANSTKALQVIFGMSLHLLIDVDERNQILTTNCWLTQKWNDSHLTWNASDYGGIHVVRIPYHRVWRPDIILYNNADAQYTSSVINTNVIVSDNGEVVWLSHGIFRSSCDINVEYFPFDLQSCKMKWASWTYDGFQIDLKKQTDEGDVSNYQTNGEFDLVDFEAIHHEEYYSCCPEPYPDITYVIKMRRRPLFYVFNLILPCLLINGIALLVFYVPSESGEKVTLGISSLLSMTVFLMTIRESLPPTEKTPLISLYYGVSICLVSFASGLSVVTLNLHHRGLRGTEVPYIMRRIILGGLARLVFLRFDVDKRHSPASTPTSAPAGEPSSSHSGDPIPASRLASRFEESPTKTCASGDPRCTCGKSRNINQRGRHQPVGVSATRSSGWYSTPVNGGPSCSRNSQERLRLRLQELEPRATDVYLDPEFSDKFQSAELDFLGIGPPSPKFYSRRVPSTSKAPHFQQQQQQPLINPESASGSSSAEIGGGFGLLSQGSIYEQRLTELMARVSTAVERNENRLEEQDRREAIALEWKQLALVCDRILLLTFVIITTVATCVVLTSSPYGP

DopC1 from Daphnia magna = biological target: T4, DopC1 from Daphnia magna (Daphnia magna, UniProt A0A0P5YVQ3); format: cell-based; details: agonist; ND96, -60 mV
T4 construct: cDNA cloned from adult D. magna RNA, KSM vector, Xenopus oocytes; homomeric; LOC116927457 assigned to DopC1 by printed order only (DopC2 = LOC116923538)
T4 sequence (A0A0P5YVQ3 24-503): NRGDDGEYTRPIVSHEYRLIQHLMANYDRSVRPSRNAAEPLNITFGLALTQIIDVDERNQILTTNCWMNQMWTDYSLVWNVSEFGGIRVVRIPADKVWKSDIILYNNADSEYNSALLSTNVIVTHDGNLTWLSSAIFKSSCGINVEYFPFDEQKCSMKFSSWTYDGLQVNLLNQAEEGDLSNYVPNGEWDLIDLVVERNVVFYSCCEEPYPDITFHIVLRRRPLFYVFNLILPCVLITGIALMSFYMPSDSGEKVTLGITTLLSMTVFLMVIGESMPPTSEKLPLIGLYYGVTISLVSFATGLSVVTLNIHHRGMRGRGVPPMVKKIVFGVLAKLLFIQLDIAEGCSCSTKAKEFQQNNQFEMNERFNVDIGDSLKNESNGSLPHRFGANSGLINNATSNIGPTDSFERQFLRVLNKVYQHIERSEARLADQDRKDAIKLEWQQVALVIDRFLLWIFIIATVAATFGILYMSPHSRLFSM

[3] = biological target: T5, DopC1 from Aplysia californica (Aplysia californica, UniProt A0ABM0GHJ1); format: cell-based
T5 construct: gene LOC101853763; full-length synthetic cDNA (GeneArt), KSM vector, Xenopus oocytes; homomeric channel
T5 sequence (A0ABM0GHJ1 25-518): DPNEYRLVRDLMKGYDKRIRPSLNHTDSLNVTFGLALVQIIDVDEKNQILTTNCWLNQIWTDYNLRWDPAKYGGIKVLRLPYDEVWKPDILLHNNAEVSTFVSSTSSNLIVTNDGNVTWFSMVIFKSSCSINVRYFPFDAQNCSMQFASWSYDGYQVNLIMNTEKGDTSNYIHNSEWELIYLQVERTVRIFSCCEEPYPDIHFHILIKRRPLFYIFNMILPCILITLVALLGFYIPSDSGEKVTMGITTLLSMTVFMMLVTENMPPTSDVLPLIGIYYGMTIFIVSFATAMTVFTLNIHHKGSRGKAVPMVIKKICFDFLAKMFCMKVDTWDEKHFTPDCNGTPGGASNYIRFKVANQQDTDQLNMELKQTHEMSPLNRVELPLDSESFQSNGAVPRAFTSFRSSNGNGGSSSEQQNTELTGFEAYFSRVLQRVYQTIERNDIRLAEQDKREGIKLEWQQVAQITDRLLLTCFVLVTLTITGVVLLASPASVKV

AChRB1 (O. vulgaris) = system: T6, AChRB1 (O. vulgaris); format: cell-based, Octopus vulgaris; details: agonist; ND96, -60 mV
T6 construct: full-length cDNA cloned from 1-dph O. vulgaris paralarvae, KSM vector, Xenopus oocytes; expressed alone (homomeric); LOC number follows O. sinensis annotation

DopC1 (O. vulgaris) [4] = system: T1, DopC1 (O. vulgaris); format: cell-based, Octopus vulgaris; details: antagonist; against 10 µM dopamine (~EC50); ND96, -60 mV

SMILES: CNCC(O)c1ccc(O)c(O)c1 (racemic) [epinephrine]
EC50 (DopC1 (O. vulgaris) [1]): 35 µM

SMILES: NCC(O)c1ccc(O)c(O)c1 (racemic) [norepinephrine]
EC50 [2]: 6.3 µM
EC50 (DopC2 from Daphnia magna): 36 µM
EC50 (DopC1 from Daphnia magna): 82 µM
EC50 (DopC1 (O. vulgaris) [1]): 55 µM
EC50 [3]: 8.4 µM

SMILES: NCC(O)c1ccc(O)cc1 (racemic) [octopamine]
EC50 (DopC1 (O. vulgaris) [1]): 18000 µM

EC50 (AChRB1 (O. vulgaris)): 1.9 µM
SMILES: CC(=O)OCC[N+](C)(C)C [acetylcholine]

SMILES: CN1CCc2cccc3c2[C@H]1Cc1ccc(O)c(O)c1-3 [apomorphine]
IC50 (DopC1 (O. vulgaris) [4]): 7 µM

EC50 (AChRB1 (O. vulgaris)): 98 µM
SMILES: C[N+](C)(C)CCO [choline]

SMILES: NCCc1ccc(O)c(O)c1 [dopamine]
EC50 [2]: 1.7 µM
EC50 (DopC2 from Daphnia magna): 4.6 µM
EC50 (DopC1 from Daphnia magna): 50 µM
EC50 (DopC1 (O. vulgaris) [1]): 7.6 µM
EC50 [3]: 3.5 µM

SMILES: NCCc1c[nH]c2ccc(O)cc12 [serotonin]
EC50 (DopC1 (O. vulgaris) [1]): 73 µM

SMILES: NCCc1ccc(O)cc1 [tyramine]
EC50 (DopC1 (O. vulgaris) [1]): 180 µM
